# US5210193A, “Piperazine derivatives” (American Cyanamid Company, priority 1990, dated 1993)
# Assays:
# Test in all cases: in vitro antibacterial MIC, agar plate dilution
# Type in all cases: cell-based
# [1] = system: Serratia marcescens K 84-18; conditions: Serratia marcescens, K8418, 18 h, 35° C., read-out: MIC
# Outline: (§1)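 MIC, mcg/ml: lowest concentration with no visible growth after 18 h incubation at 35° C. Mueller-Hinton agar dilution plates; ~10^4 CFU inoculum via Steers replicating device.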
# [2] = system: Staphylococcus aureus CMC 83-128; conditions: CMC83128, 18 hours, 35° C., read-out: MIC
# Outline: as §1
# [3] = system: Klebsiella oxytoca MOR 84-28; conditions: MOR8428, 18 hours, 35° C.
# Outline: as §1
# [4] = system: Escherichia coli PRNT 311; conditions: PRNT311, 18 hours, 35° C., read-out: MIC
# Outline: as §1
# [5] = system: Proteus rettgeri CMC 84-41; conditions: Providencia rettgeri, CMC8441, 18 h, 35° C., read-out: MIC
# Outline: as §1
# [6] = system: Staphylococcus Spp saprophiticus VGH 84-50; conditions: 18 hours, 35° C., read-out: MIC
# Outline: as §1
# [7] = system: Escherichia coli CMC 84-16; conditions: Escherichia coli, CMC8416, 18 h, 35° C., read-out: MIC
# Outline: as §1
# [8] = system: Staphylococcus epidermidis IO 83-58; conditions: IO8358, 18 hours, 35° C., read-out: MIC
# Outline: as §1
# [9] = system: Staphylococcus epidermidis VGH 84-40; conditions: VGH8440, 18 hours, 35° C., read-out: MIC
# Outline: as §1
# [10] = system: Acinetobacter calcoaceticus MOR 84-43; conditions: MOR8443, 18 hours, 35° C., read-out: MIC
# Outline: as §1
# [11] = system: Serratia marcescens F 0-35; conditions: Serratia marcescens, F035, 18 h, 35° C., read-out: MIC
# Outline: as §1
# [12] = system: Staphylococcus aureus ATCC 25913; conditions: ATCC25913, 18 hours, 35° C.
# Outline: as §1
# [13] = system: Streptococcus faecalis VGH 84-65; conditions: Enterococcus faecalis, VGH8465, 18 h, 35° C., read-out: MIC
# Outline: as §1
# [14] = system: Enterobacter cloacae VGH 84-37; conditions: Enterobacter cloacae, VGH8437, 18 h, 35° C., read-out: MIC
# Outline: as §1
# [15] = system: Streptococcus faecalis ATTC 29212; conditions: Enterococcus faecalis, ATTC29212, 18 hours, 35° C., read-out: MIC
# Outline: as §1
# [16] = system: Escherichia coli CMC 84-11; conditions: Escherichia coli, CMC8411, 18 h, 35° C., read-out: MIC
# Outline: as §1
# [17] = system: Staphylococcus epidermidis CMC 83-135; conditions: CMC83135, 18 hours, 35° C., read-out: MIC
# Outline: as §1
# [18] = system: Staphylococcus aureus VGH 84-45; conditions: Staphylococcus aureus, VGH8445, 18 h, 35° C., read-out: MIC
# Outline: as §1
# [19] = system: Enterobacter aerogenes VGH 84-36; conditions: Klebsiella aerogenes, VGH8436, 18 hours, 35° C., read-out: MIC
# Outline: as §1
# [20] = system: Escherichia coli ATCC 25922; conditions: Escherichia coli, ATCC25922, 18 h, 35° C., read-out: MIC
# Outline: as §1
# [21] = system: Morganella morganii VGH 84-11; conditions: VGH8411, 18 hours, 35° C., read-out: MIC
# Outline: as §1
# [22] = system: Pseudomonas aeruginosa LL-1244; conditions: Pseudomonas aeruginosa, LL1244, 18 h, 35° C., read-out: MIC
# Outline: as §1
# [23] = system: Morganella morganii CMC 84-37; conditions: Morganella morganii, CMC8437, 18 h, 35° C., read-out: MIC
# Outline: as §1
# [24] = system: Pseudomonas aeruginosa VGH 84-4; conditions: Pseudomonas aeruginosa, VGH844, 18 h, 35° C., read-out: MIC
# Outline: as §1
# [25] = system: Klebsiella pneumoniae MOR 84-4; conditions: Klebsiella pneumoniae, MOR844, 18 h, 35° C., read-out: MIC
# Outline: as §1
# Klebsiella pneumoniae AD = conditions: Klebsiella pneumoniae, 18 h, 35° C., read-out: MIC
# Outline: as §1
# [26] = system: Enterobacter cloacae K 84-10; conditions: Enterobacter cloacae, K8410, 18 h, 35° C., read-out: MIC
# Outline: as §1
# [27] = system: Staphylococcus aureus VGH 84-46; conditions: Staphylococcus aureus, VGH8446, 18 h, 35° C., read-out: MIC
# Outline: as §1
# [28] = system: Staphylococcus aureus ATTC 29213; conditions: Staphylococcus aureus, ATTC29213, 18 h, 35° C., read-out: MIC
# Outline: as §1
# Escherichia coli NAR 311 = conditions: NAR311, 18 hours, 35° C., read-out: MIC
# Outline: as §1
# [29] = system: Staphylococcus aureus Smith; conditions: Staphylococcus aureus, 18 h, 35° C., read-out: MIC
# Outline: as §1
# [30] = system: Staphylococcus aureus CMC 83-127; conditions: Staphylococcus aureus, CMC83127, 18 h, 35° C., read-out: MIC
# Outline: as §1
MIC [1] [µg/mL],MIC [2] [µg/mL],MIC [3] [µg/mL],MIC [4] [µg/mL],MIC [5] [µg/mL],MIC [6] [µg/mL],MIC [7] [µg/mL],MIC [8] [µg/mL],MIC [9] [µg/mL],MIC [10] [µg/mL],MIC [11] [µg/mL],MIC [13] [µg/mL],MIC [14] [µg/mL],MIC [15] [µg/mL],MIC [16] [µg/mL],MIC [17] [µg/mL],MIC [18] [µg/mL],MIC [19] [µg/mL],MIC [20] [µg/mL],MIC [21] [µg/mL],SMILES,also measured
0.5,0.5,0.5,0.5,0.25,2,0.25,0.5,0.25,4,1,4,0.12,4,0.12,0.25,0.25,0.5,0.12,0.12,CCn1cc(C(=O)O)c(=O)c2cc(F)c(N3CCNC(c4ccsc4)C3)cc21 (stereo not drawn) [Example 30],MIC [12]: 0.25 µg/mL; MIC [22]: 32 µg/mL; MIC [23]: 0.25 µg/mL; MIC [24]: 4 µg/mL; MIC [25]: 0.25 µg/mL; MIC (Klebsiella pneumoniae AD): 0.12 µg/mL; MIC [26]: 0.5 µg/mL; MIC [27]: 0.25 µg/mL; MIC [28]: 0.5 µg/mL; MIC (Escherichia coli NAR 311): 4 µg/mL; MIC [29]: 0.12 µg/mL; MIC [30]: 0.12 µg/mL
> 256,64,> 256,> 256,> 256,> 256,> 256,> 256,> 256,> 256,> 256,> 256,> 256,> 256,> 256,> 256,256,> 256,> 256,> 256,"CCn1cc(C(=O)O)c(=O)c2cc(F)c(N3CCN(C)C(c4sc5ccccc5c4C)C3)cc21 (stereo not drawn) [Example 54, 1-Ethyl-6-fluoro-1,4-dihydro-7-[4-methyl-3-(3-methyl-benzo[b]thien-2-yl)-1-oiperazinyl]-4-oxo-3-quinolinecarboxylic acid]",MIC [22]: > 256 µg/mL; MIC [23]: > 256 µg/mL; MIC [24]: > 256 µg/mL; MIC [25]: > 256 µg/mL; MIC (Klebsiella pneumoniae AD): > 256 µg/mL; MIC [26]: > 256 µg/mL; MIC [27]: > 256 µg/mL; MIC [28]: 256 µg/mL; MIC (Escherichia coli NAR 311): > 256 µg/mL; MIC [29]: 64 µg/mL; MIC [30]: 32 µg/mL
1,≤ 0.12,0.5,0.5,0.25,1,≤ 0.12,0.25,≤ 0.12,2,1,2,≤ 0.12,2,≤ 0.12,≤ 0.12,≤ 0.06,0.5,≤ 0.12,0.25,"CCn1cc(C(=O)O)c(=O)c2cc(F)c(N3CCNC(c4ccco4)C3)cc21 (stereo not drawn) [Example 28, 1-Ethyl-6-fluoro-7-[3-(2-furanyl)-1-piperazinyl]-1,4-dihydro-4-oxo-3-quinolinecarboxylic acid]",MIC [12]: ≤ 0.12 µg/mL; MIC [22]: 32 µg/mL; MIC [23]: 0.25 µg/mL; MIC [24]: 4 µg/mL; MIC [25]: 0.25 µg/mL; MIC (Klebsiella pneumoniae AD): ≤ 0.12 µg/mL; MIC [26]: 0.25 µg/mL; MIC [27]: ≤ 0.12 µg/mL; MIC [28]: 0.25 µg/mL; MIC (Escherichia coli NAR 311): 4 µg/mL; MIC [29]: ≤ 0.12 µg/mL; MIC [30]: ≤ 0.06 µg/mL
0.5,2,1,0.12,0.5,8,0.06,1,1,1,0.5,16,0.12,8,0.12,2,1,0.5,0.12,0.12,"CCn1cc(C(=O)O)c(=O)c2c(F)c(F)c(N3CCN(C)CC3)c(F)c21 [Example 85, 1-Ethyl-5,6,8-trifluoro-1,4-dihydro-7-(4-methyl-1-piperazinyl) -4-oxo-3-quinolinecarboxylic acid]",MIC [22]: 16 µg/mL; MIC [23]: 0.12 µg/mL; MIC [24]: 4 µg/mL; MIC [25]: 0.5 µg/mL; MIC (Klebsiella pneumoniae AD): 0.25 µg/mL; MIC [26]: 0.12 µg/mL; MIC [27]: 1 µg/mL; MIC [28]: 2 µg/mL; MIC (Escherichia coli NAR 311): 4 µg/mL; MIC [29]: 1 µg/mL; MIC [30]: 0.5 µg/mL
